{"source": "patent US5763194A", "about": "“Cell separation device” (Unisearch Limited, priority 1993, dated 1998)", "tested_on": "CD34+ cells", "assay": "Separation of CD34+ cells from mobilised blood using shear fractionation and pre-treatment with chymopapain", "format": "cell-based, human (patient)", "description": "Cells bound to the semi-permeable substrate of the present invention may be pre-treated with a cell-releasing agent prior to removal by shear stress. The proteolytic enzyme chymopapain has been used to assist the removal of CD34^+ cells bound to a hollow fibre apparatus of the present invention.\nA mononuclear cell concentrate was collected from a patient undergoing peripheral stem cell mobilisation with cyclophosphamide and G-CSF.\nA Cuprophan hollow-fibre module (binding area ^~ 500 cm^2) was derivatised with antiCD34 monoclonal antibody (clone 9e5) using the hydrazide method as described previously with the following change in protocl. Cuprophan was derivatised with 25% ethylene glycol diglycidyl ether for 2 hours at room temperature.\nA total of 1.7×10^8 cells in 4 mls of phosphate buffered saline with 0.5% human Ig and 0.5% bovine serum albumin added was injected into the vertically aligned module using blind-ended filtration. Residual cells in the inlet tubing were flushed with a further 0.5 ml of buffer (blind-ended filtration). The entire loading process took less than 8 minutes. Cells were loaded at approximately 340,000 cells/cm^2.\nFor cell deposition within the fibre lumen, the module was rotated into the horizontal position. After 4 minutes of settling time, the module was rotated around its long axis over a 12 minute period (2 full revolutions).\nFor cell recovery the module was returned to the vertical position. The CD34 depleted cell population was recovered in successive 10 ml fractions by incrementing shear stress up to 100 dynes/cm (Fraction numbers 1-5).\nFollowing this, attached cells were incubated with the proteolytic enzyme Chymopapain (DISCASE™) at 400 pKat/ml. The incubation period lasted 20 minutes. During this time released cells were collected at low shear stress (0.2 dynes/cm^2, Fraction 6). Shear fractionation was then used to further purify treated cells. 10 ml fractions were collected at shear stresses of 10, 50 and 100 dynes/cm2.", "key": {"[1]": {"conditions": "Fraction 6, chymopapain + 0.2 dynes/cm^2"}, "[2]": {"conditions": "Fraction 7, after chymopapain, 10 dynes/cm^2"}, "[3]": {"conditions": "Fraction 8, after chymopapain, 50 dynes/cm^2"}, "[4]": {"conditions": "Fraction 9, after chymopapain, 100 dynes/cm^2"}, "[5]": {"conditions": "Fraction 10, after chymopapain, 100 dynes/cm^2"}, "[6]": {"conditions": "Fraction 11, after chymopapain, ~1000 dynes/cm^2 (3% dextran T2000)"}}}
{"substance": "chymopapain: proteolytic enzyme Chymopapain (DISCASE™)", "values": [{"measurement": "CD34+ incidence", "setting": "[1]", "value": 93.1, "unit": "%"}, {"measurement": "Number of CD34+ cells", "setting": "[1]", "value": "640,000"}, {"measurement": "Total number of cells", "setting": "[1]", "value": "687,000"}, {"measurement": "CD34+ incidence", "setting": "[2]", "value": 86.1, "unit": "%"}, {"measurement": "Number of CD34+ cells", "setting": "[2]", "value": "1,770,000"}, {"measurement": "Total number of cells", "setting": "[2]", "value": "2,060,000"}, {"measurement": "CD34+ incidence", "setting": "[3]", "value": 1.91, "unit": "%"}, {"measurement": "Number of CD34+ cells", "setting": "[3]", "value": "45,100"}, {"measurement": "Total number of cells", "setting": "[3]", "value": "2,360,000"}, {"measurement": "CD34+ incidence", "setting": "[4]", "value": 1.19, "unit": "%"}, {"measurement": "Number of CD34+ cells", "setting": "[4]", "value": "12,400"}, {"measurement": "Total number of cells", "setting": "[4]", "value": "1,040,000"}, {"measurement": "CD34+ incidence", "setting": "[5]", "value": 0.54, "unit": "%"}, {"measurement": "Number of CD34+ cells", "setting": "[5]", "value": "3,060"}, {"measurement": "Total number of cells", "setting": "[5]", "value": "567,000"}, {"measurement": "CD34+ incidence", "setting": "[6]", "value": 0.31, "unit": "%"}, {"measurement": "Number of CD34+ cells", "setting": "[6]", "value": "2,050"}, {"measurement": "Total number of cells", "setting": "[6]", "value": "660,000"}, {"measurement": "CD34 antigen expression of released cells", "setting": "flow cytometry (BG12-PE), chymopapain released cells", "value": "150-1600 channels"}, {"measurement": "purity of fractions 6 and 7", "setting": "fractions 6 and 7", "value": "at least 90%"}, {"measurement": "separation yield (CD34+ cells recovered/CD34+ cells input)", "setting": "fractions 6 and 7 pooled", "value": 53, "unit": "%"}]}
